Reference: patent US20080171710A1, “The Redox/Fyn/c-Cbl Pathway” (priority 2007, published 2008)

Tests used:
O-2A/OPCs [1] = experiment: Clonal analysis of division and differentiation; assay type: cell-based, rat
Procedure: O-2A/OPCs purified from P7 rat optic nerve were plated in. poly-L-lysine-coated 25-cm^2 flasks at clonal density with DMBM medium in the presence of 10-ng/ml PDGF as previously described. After 24-h recovery, cells were treated with different toxicants, each for 3 d, until visual inspection and immunostaining was performed. NAC was added 1 h before exposure to other toxicants for NAC pretreatment, and NAC co-exists throughout the culture period. The numbers of O-2A/OPCs and oligodendrocytes in each clone were determined by counting under fluorescent microscope. […] Experiments were performed in triplicate in at least two independent experiments.

TrkC [2] = assay type: cell-based, rat; conditions: MeHg, Pb or paraquat
In short: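 Western blot of cell lysates or sonicated tissue in RAPI buffer, SDS-PAGE to PVDF, primary antibodies (phospho-Erk, phospho-Akt, receptor, phospho-tyrosine), HRP secondary and luminol detection. Signaling analysed in presence of the cognate ligand: EGF for EGFR, NT-3 for TrkC, HGF for c-Met.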

PDGFRα = experiment: PDGFR ubiquitylation (immunoprecipitation assay); assay type: cell-based, rat; conditions: MeHg exposure
Procedure: For the co-immunoprecipitation assay, anti-c-Cbl monoclonal antibody (BD PharMingen) or anti-PDGFRα polyclonal antibody (Santa Cruz Biotechnology) was added to the pre-cleared cell lysates (250 μg of total protein), and the mixtures were gently rocked for 2 h at 4° C. A total of 30 μl of protein A/G agarose was then added to the mixture followed by rotating at 4° C. overnight. The protein A/G agarose was then spun down and washed thoroughly three times. The precipitates were resolved on an 8% SDS-PAGE gel and then were subjected to Western blot analysis using an anti-p-Tyr (for c-Cbl phosphorylation assay) or ubiquitin (for PDGFR ubiquitylation assay) antibody (Santa Cruz Biotechnology).

PDGFRα mRNA = experiment: PDGFRα mRNA, real-time RT-PCR; assay type: cell-based, rat; conditions: MeHg exposure
Procedure: Total RNA was isolated using TRIZOL reagent (Inviirogen, Carlsbad, Calif., United States) according to the manufacturer's protocol. A total of 1 μg of RNA was subjected to reverse transcription using Superscript II (In vitrogen). The reactions were incubated at 42° C. for 50 min. The FAM-iabeled probe mixes for rat PDGFRα and Fyn, and the VIC-labeled GAPDH probe mix were purchased from Applied Biosystems (Foster City Calif., United States). For multiplex real-time PCR, reactions each containing 5 μl of 10-fold diluted reverse transcription product, 1 μl of interest gene probe mix. 1 μl of GAPDH probe mix, and 10 μl of TaqMan Universal PCR Master Mix were performed on an iCycler iQ multicolor real-time PCR system (Bio-Rad, Hercules, Calif., United States) and cycling condition was 50° C. for 2 min and 95° C. for 10 min, followed by 40 cycles of 95° C. for 15 sec and 60° C. for 1 min. Each sample was run in triplicate. Data were analyzed, by iCycler iQ software (Bio-Rad).

TrkC [3] = experiment: TrkC levels in brain tissue after developmental exposure; assay type: in vivo, SJL mice; conditions: 100 or 250 ppb MeHg in maternal drinking water
From the text: Anti-phosphorylated Erk monoclonal, anti-Erk monoclonal, anti-TrkC polyclonal anti-Fyn polyclonal, anti-EGFR polyclonal, anti-c-Met polyclonal, anti-phospho-tyrosine monoclonal, and anti-PDGFRα polyclonal antibodies were obtained from Santa Cruz Biotechnology (Santa Cruz, Calif., United States). Anti-c-Cbl monoclonal antibody was obtained from BD PharMingen (San Diego, Calif., United States). Anti-phosphorylated Akt monoclonal and anti-Akt polyclonal antibodies were obtained from Cell Signaling Technology (Beverly, Mass., United States). Anti-phosphorylated PDGPRα polyclonal antibody was obtained from Biosource (Carlsbad, Calif., United States). The cell culture samples were collected and lysed in RAPI buffer, whereas dissected tissue samples were sonicated in RAPI buffer. Samples were resolved on SDS-PAGE gels and transferred to PVDF membranes (PerkinElmer Life Science. Wellesley, Mass., United States), After being blocked in 5% skim milk in PBS containing 0.1% Tween 20, membranes were incubated with a primary antibody, followed by incubation with an HRP-conjugated secondary antibody (Santa Cruz Biotechnology). Membranes were visualized using Western Blotting Luminol Reagent (Santa Cruz Biotechnology). […]

O-2A/OPCs [4] = experiment: In vivo BrdU incorporation assay with Olig2 co-labeling, corpus callosum; parameters: species or system mice; conditions: low-level MeHg in maternal drinking water, P14
Procedure: To analyze DNA synthesis in vivo, mice were injected with a single dose of 5-BrdU (50 mg/kg body weight), dissolved in 0.9% NaCl, filtered (0.2 μm), and applied intraperitoneally 2 h prior to perfusion. After removal and sectioning of brains, 40-μm free-floating sections were incubated for 2 h in 50% forraamide/2×SSC (0.3 M NaCl and 0.03 M sodium citrate) at 65° C., rinsed twice for 5 min each in 2×SSC, incubated for 30 min in 2N HCl at 37° C., and rinsed for 10 min in 0.1 M boric acid (pH 8.5) at room temperature. Several rinses in TBS were followed by incubation in TBS/0.1% Triton X-100/3% donkey serum (TBS-plus) for 30 min. Sections were then incubated with monoclonal rat anti-BrdU antibody (1:2,500; Harlan Sera-Lab, Loughborough, United Kingdom) and polyclonal rabbit anti-Olig2 in TBS-plus for 48 h at 4° C. […]
Quantification of BrdU+ cells was accomplished with unbiased counting methods by confocal microscopy. BrdU immunoreaetive nuclei were counted in one focal plane to avoid over-sampling. In corpus callosum, BrdU+ cells were counted in every sixth section (40 μm) from a coronal, series between interaural AP+5.2 mm and AP+3.0 mm in the entire extension of the rostral and medial part of the corpus callosum. Quantitative data are presented as mean percentage normalized to control animals. […]

O-2A/OPCs [5] = experiment: Analysis of Pb uptake (Leadmium Green AM); assay type: cell-based, rat; conditions: 1 μM Pb, 1 mM NAC
Procedure: Pre-treatment with NAC was assayed to determine whether levels of intracellular Pb was altered using analysis with the Leadmium Green AM dye (Molecular Probes), according to the manufacturer's instructions. […] (unpaired t-test), and the values for both Pb-treated samples were several-fold higher than control values.

Fyn = assay type: cell-based, rat

## [CH3][Hg][Cl] [MeHg, methylmercury]
O-2A/OPCs [1]; MeHg exposure, PDGF
  clone composition (cell division at the clonal level): reduction in the number of large clones and an increase in the number of small clones
TrkC [2]
  levels of TrkC after toxicant exposure: no reduction in levels of TrkC
PDGFRα
  ubiquitylation of PDGFRα: enhanced ubiquitylation
PDGFRα mRNA
  levels of PDGFRα mRNA: did not have any significant effects
TrkC [3]
  levels of TrkC in brain: not reduced
O-2A/OPCs [4]
  reduction in the number of total BrdU+ cells: 20%

## CC(=O)N[C@@H](CS)C(=O)O [NAC, N-acetyl-L-cysteine]
O-2A/OPCs [1]; co-exposure with MeHg, 1 mM NAC or PP1
  effect on MeHg-induced suppression of cell division at the clonal level: blocked
O-2A/OPCs [5]
  Pb levels in cells, Pb versus Pb and NAC: no significant difference
Fyn; co-exposure to NAC
  effect on EtOH-induced Fyn phosphorylation: blocked
Fyn; co-exposure with Aβ
  effect on Aβ-induced increase in phosphorylated Fyn: reversed
